Source: ChEMBL document CHEMBL1201862, “PubChem BioAssay data set” (2004)
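A five-concentration, 48-hour dose response in 96-well plates underlies each endpoint, interpolated linearly between surrounding concentrations. Abbreviation: GI50, concentration required for 50% inhibition of growth.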 The source made the active and inactive calls. No stated cut-off is given here; in the data, active = GI50 up to about 1.1 µM and inactive = higher.

How the values were obtained:
Assay in all cases: DTP human tumour cell line panel, 48 h
HOP-62 = tested on: HOP-62
SW-620 = tested on: SW-620
T47D = tested on: T47D
LOX IMVI = tested on: LOX IMVI
CCRF-CEM = tested on: CCRF-CEM
IGROV-1 = tested on: IGROV-1
Malme-3M = tested on: Malme-3M
MDA-MB-435 = tested on: MDA-MB-435
MCF7 = tested on: MCF7
K562 = tested on: K562
DU-145 = tested on: DU-145
A549 = tested on: A549
SK-MEL-5 = tested on: SK-MEL-5
786-0 = tested on: 786-0
COLO 205 = tested on: COLO 205
M14 = tested on: M14
OVCAR-3 = tested on: OVCAR-3
Hs-578T = tested on: Hs-578T
UACC-62 = tested on: UACC-62
ACHN = tested on: ACHN
NCI/ADR-RES = tested on: NCI/ADR-RES
NCI-H522 = tested on: NCI-H522
HCC 2998 = tested on: HCC 2998
UO-31 = tested on: UO-31
BT-549 = tested on: BT-549
MDA-N = tested on: MDA-N
HCT-116 = tested on: HCT-116
HCT-15 = tested on: HCT-15
SF-268 = tested on: SF-268
OVCAR-8 = tested on: OVCAR-8
MOLT-4 = tested on: MOLT-4
SN12C = tested on: SN12C
SF-539 = tested on: SF-539
RXF 393 = tested on: RXF 393
OVCAR-5 = tested on: OVCAR-5
NCI-H460 = tested on: NCI-H460
CAKI-1 = tested on: CAKI-1
RPMI-8226 = tested on: RPMI-8226
EKVX = tested on: EKVX
HT-29 = tested on: HT-29
HL-60 = tested on: HL-60
UACC-257 = tested on: UACC-257
NCI-H226 = tested on: NCI-H226
PC-3 = tested on: PC-3
SNB-19 = tested on: SNB-19
MDA-MB-231 = tested on: MDA-MB-231
SF-295 = tested on: SF-295
TK-10 = tested on: TK-10
NCI-H23 = tested on: NCI-H23
KM12 = tested on: KM12
SNB-75 = tested on: SNB-75
OVCAR-4 = tested on: OVCAR-4
A498 = tested on: A498
SK-MEL-2 = tested on: SK-MEL-2
HOP-92 = tested on: HOP-92
SK-MEL-28 = tested on: SK-MEL-28
U-251 = tested on: U-251
SK-OV-3 = tested on: SK-OV-3

**Q.** How did the GI50 (HOP-62) turn out when `CC(CN1NC12CCCC2)N1NC12CCCC2` (stereo not drawn) was run?
**A.** The GI50 was > 100 µM (inactive).

**Q.** What about the GI50 (SW-620) of the same compound?
**A.** Its GI50 is > 100 µM (inactive).

**Q.** What about the GI50 (T47D) of the same compound?
**A.** The GI50 was > 100 µM (inactive).

**Q.** What about the GI50 (LOX IMVI) of the same compound?
**A.** Its GI50 is > 100 µM (inactive).

**Q.** And the GI50 (CCRF-CEM)?
**A.** Its GI50 is > 100 µM (inactive).

**Q.** What about the GI50 (IGROV-1) of the same compound?
**A.** Its GI50 is > 100 µM (inactive).

**Q.** What about the GI50 (Malme-3M) of the same compound?
**A.** Its GI50 is > 100 µM (inactive).

**Q.** What about the GI50 (MDA-MB-435) of the same compound?
**A.** The GI50 was > 100 µM (inactive).

**Q.** What about the GI50 (MCF7) of the same compound?
**A.** The GI50 was > 100 µM (inactive).

**Q.** What about the GI50 (K562) of the same compound?
**A.** The GI50 was > 100 µM (inactive).

**Q.** And the GI50 (DU-145)?
**A.** The GI50 was > 100 µM (inactive).

**Q.** And the GI50 (A549)?
**A.** The GI50 was > 100 µM (inactive).

**Q.** What about the GI50 (SK-MEL-5) of the same compound?
**A.** Its GI50 is > 100 µM (inactive).

**Q.** What about the GI50 (786-0) of the same compound?
**A.** Its GI50 is > 100 µM (inactive).

**Q.** What about the GI50 (COLO 205) of the same compound?
**A.** Its GI50 is > 100 µM (inactive).

**Q.** And the GI50 (M14)?
**A.** The GI50 was > 100 µM (inactive).

**Q.** And the GI50 (OVCAR-3)?
**A.** Its GI50 is > 100 µM (inactive).

**Q.** And the GI50 (Hs-578T)?
**A.** Its GI50 is > 100 µM (inactive).

**Q.** And the GI50 (UACC-62)?
**A.** The GI50 was > 100 µM (inactive).

**Q.** What about the GI50 (ACHN) of the same compound?
**A.** Its GI50 is > 100 µM (inactive).

**Q.** What about the GI50 (NCI/ADR-RES) of the same compound?
**A.** The GI50 was > 100 µM (inactive).

**Q.** What about the GI50 (NCI-H522) of the same compound?
**A.** Its GI50 is > 100 µM (inactive).

**Q.** What about the GI50 (HCC 2998) of the same compound?
**A.** Its GI50 is > 100 µM (inactive).

**Q.** And the GI50 (UO-31)?
**A.** The GI50 was > 100 µM (inactive).

**Q.** What about the GI50 (BT-549) of the same compound?
**A.** The GI50 was > 100 µM (inactive).

**Q.** And the GI50 (MDA-N)?
**A.** The GI50 was > 100 µM (inactive).

**Q.** And the GI50 (HCT-116)?
**A.** Its GI50 is > 100 µM (inactive).

**Q.** What about the GI50 (HCT-15) of the same compound?
**A.** The GI50 was over 100 µM.

**Q.** What about the GI50 (SF-268) of the same compound?
**A.** Its GI50 is > 100 µM (inactive).

**Q.** What about the GI50 (OVCAR-8) of the same compound?
**A.** Its GI50 is > 100 µM (inactive).

**Q.** And the GI50 (MOLT-4)?
**A.** Its GI50 is > 100 µM (inactive).

**Q.** What about the GI50 (SN12C) of the same compound?
**A.** Its GI50 is > 100 µM (inactive).

**Q.** And the GI50 (SF-539)?
**A.** Its GI50 is > 100 µM (inactive).

**Q.** What about the GI50 (RXF 393) of the same compound?
**A.** Its GI50 is > 100 µM (inactive).

**Q.** What about the GI50 (OVCAR-5) of the same compound?
**A.** The GI50 was > 100 µM (inactive).

**Q.** And the GI50 (NCI-H460)?
**A.** The GI50 was > 100 µM (inactive).

**Q.** What about the GI50 (CAKI-1) of the same compound?
**A.** Its GI50 is > 100 µM (inactive).

**Q.** And the GI50 (RPMI-8226)?
**A.** The GI50 was > 100 µM (inactive).

**Q.** And the GI50 (EKVX)?
**A.** Its GI50 is > 100 µM (inactive).

**Q.** And the GI50 (HT-29)?
**A.** The GI50 was > 100 µM (inactive).

**Q.** What about the GI50 (HL-60) of the same compound?
**A.** The GI50 was > 100 µM (inactive).

**Q.** And the GI50 (UACC-257)?
**A.** Its GI50 is 60.8 µM (inactive).

**Q.** And the GI50 (NCI-H226)?
**A.** Its GI50 is > 100 µM (inactive).

**Q.** And the GI50 (PC-3)?
**A.** Its GI50 is > 100 µM (inactive).

**Q.** And the GI50 (SNB-19)?
**A.** Its GI50 is > 100 µM (inactive).

**Q.** What about the GI50 (MDA-MB-231) of the same compound?
**A.** The GI50 was > 100 µM (inactive).

**Q.** What about the GI50 (SF-295) of the same compound?
**A.** Its GI50 is > 100 µM (inactive).

**Q.** What about the GI50 (TK-10) of the same compound?
**A.** The GI50 was > 100 µM (inactive).

**Q.** What about the GI50 (NCI-H23) of the same compound?
**A.** Its GI50 is > 100 µM (inactive).

**Q.** What about the GI50 (KM12) of the same compound?
**A.** Its GI50 is > 100 µM (inactive).

**Q.** What about the GI50 (SNB-75) of the same compound?
**A.** The GI50 was > 100 µM (inactive).

**Q.** What about the GI50 (OVCAR-4) of the same compound?
**A.** Its GI50 is > 100 µM (inactive).

**Q.** What about the GI50 (A498) of the same compound?
**A.** The GI50 was > 100 µM (inactive).

**Q.** What about the GI50 (SK-MEL-2) of the same compound?
**A.** The GI50 was > 100 µM (inactive).

**Q.** And the GI50 (HOP-92)?
**A.** Its GI50 is > 100 µM (inactive).

**Q.** What about the GI50 (SK-MEL-28) of the same compound?
**A.** The GI50 was > 100 µM (inactive).

**Q.** What about the GI50 (U-251) of the same compound?
**A.** Its GI50 is > 100 µM (inactive).

**Q.** What about the GI50 (SK-OV-3) of the same compound?
**A.** Its GI50 is > 100 µM (inactive).
